# Measured values reported in US20030077289A1, “Use of cell-penetrating peptides to generate antitumor immunity” (priority 2001, published 2003).
# Residues, ends and D or L forms follow the SMILES beside them.
# What was measured:
# B16 tumor = conditions: Schreurs et al., 2000; 9-mer versus 8-mer; cited from earlier work
# CD4+ T cells = assay: Peptide-specific CD4+ T cell activity; format: cell-based
# mature DCs = assay: Entry of fluorescein-labeled peptides into mature DCs (fluorescence microscopy); format: cell-based, C57BL/6 mouse
# Procedure: 1A) Peptide sequences for cell-penetrating peptide (CPP1), TRP-2 and control peptides. B) Fluorescence and phase-contrast microscopy of DC incubated with various peptide-FITC (40×magnification). DCs incubated with PBS served as a control. 1C) DCs incubated with CPP1-TRP2-FITC and viewed by phase-contrast or fluorescence microscopy at 60×magnification. Representative examples of DC/CPP1-TRP2-FITC are shown. The penetrating fluorescent peptide was localized in both the cytoplasm as well as the cell nucleus. 1D) T cell response to DCs loaded with each peptide (solid circle for CPP1-TRP2, open circle for TRP2, and open triangle for CPP1-βgal) at different time points after peptide pulsing. GM-CSF release from T cells was determined by ELISA.
# Dendritic Cell Preparation and Analysis. Mouse immature and mature DCs were derived from C57BL/6 bone marrow as previously described (Labeur et al., 1999; Specht et al., 1997). Phenotype and mixed leukocyte reaction activity of DCs were analyzed according to the protocol described (Specht et al., 1997). Briefly, immature DCs were generated in the presence of murine GM-CSF without transfer steps. The loosely adherent immature DCs were harvested on day 5 and used for experiments. Mature DCs were generated in the presence of recombinant GM-CSF and 1000 U/ml of IL-4 (Peprotech, Rocky Hill, N.J.). […]
Compound,CTL activity in vitro after multiple immunization (B16 tumor),peptide-specific CD4+ T cell activity (CD4+ T cells),"intracellular localization of peptide in DCs (mature DCs; fluorescein-labeled peptide, mature DC)","internalization of peptide into mature DCs (mature DCs; peptide labeled at N-terminus with fluorescein, incubated with mature DC)"
"CC(C)C[C@H](NC(=O)[C@H](Cc1c[nH]c2ccccc12)NC(=O)[C@@H](NC(=O)[C@H](Cc1ccccc1)NC(=O)[C@H](Cc1ccccc1)NC(=O)[C@H](CC(=O)O)NC(=O)[C@H](Cc1ccc(O)cc1)NC(=O)[C@@H](N)C(C)C)C(C)C)C(=O)O [TRP2 (VYDFFVWL 8-mer), VYDFFVWL] (H-VYDFFVWL-OH)",comparable,,,
"AAVLLPVLLAAPSVYDFFVWL [CPP1-TRP2, TRP2 peptide covalently linked to cell-penetrating peptide CPP1 (21-mer)]",,not detected,translocated and accumulated in the cytoplasm as well as the cell nucleus,efficiently internalized
"SVYDFFVWL [TRP2, reference compound]",,not detected,,
